According to ChEMBL document CHEMBL1275261, “Nationwide investigation of extended-spectrum beta-lactamases, metallo-beta-lactamases, and extended-spectrum oxacillinases produced by ceftazidime-resistant Pseudomonas aeruginosa strains in France” (2010):
Converted amounts (≈) assume the structure as drawn.

Columns and labels:
Type in all cases: functional
Pseudomonas aeruginosa [1] = experiment: Antibacterial activity against OXA-19 producing Pseudomonas aeruginosa isolate P9 exhibiting PFGE A pattern by 2-fold agar dilution method
Pseudomonas aeruginosa [2] = experiment: Antibacterial activity against VIM-2 producing Pseudomonas aeruginosa isolate P67 exhibiting PFGE J pattern by 2-fold agar dilution method
Pseudomonas aeruginosa [3] = experiment: Antibacterial activity against PER-1 producing Pseudomonas aeruginosa isolate P170 exhibiting PFGE G pattern by 2-fold agar dilution method
Pseudomonas aeruginosa [4] = experiment: Antibacterial activity against SHV-2a producing Pseudomonas aeruginosa isolate P60 exhibiting PFGE H pattern by 2-fold agar dilution method
Pseudomonas aeruginosa [5] = experiment: Antibacterial activity against OXA-28 producing Pseudomonas aeruginosa isolate P174 exhibiting PFGE E pattern by 2-fold agar dilution method
Pseudomonas aeruginosa [6] = experiment: Antibacterial activity against SHV-2a producing Pseudomonas aeruginosa isolate P102 exhibiting PFGE H pattern by 2-fold agar dilution method
Pseudomonas aeruginosa [7] = experiment: Antibacterial activity against OXA-2 and OXA-19 producing Pseudomonas aeruginosa isolate P66 exhibiting PFGE C pattern by 2-fold agar dilution method
Pseudomonas aeruginosa [8] = experiment: Antibacterial activity against OXA-30, PSE-1, VIM-2 and PER-1 producing Pseudomonas aeruginosa isolate P19 exhibiting PFGE F pattern by 2-fold agar dilution method
Pseudomonas aeruginosa [9] = experiment: Antibacterial activity against VEB-1a and OXA-10 producing Pseudomonas aeruginosa isolate P151 exhibiting PFGE I pattern by 2-fold agar dilution method
Pseudomonas aeruginosa [10] = experiment: Antibacterial activity against OXA-19 producing Pseudomonas aeruginosa isolate P122 exhibiting PFGE A pattern by 2-fold agar dilution method
Pseudomonas aeruginosa [11] = experiment: Antibacterial activity against OXA-19 producing Pseudomonas aeruginosa isolate P11 exhibiting PFGE A pattern by 2-fold agar dilution method
Pseudomonas aeruginosa [12] = experiment: Antibacterial activity against OXA-10, PSE-1, VIM-2 and PER-1 producing Pseudomonas aeruginosa isolate P22 exhibiting PFGE F pattern by 2-fold agar dilution method
Pseudomonas aeruginosa [13] = experiment: Antibacterial activity against IMP-18 producing Pseudomonas aeruginosa isolate P85 exhibiting PFGE K pattern by 2-fold agar dilution method
Pseudomonas aeruginosa [14] = experiment: Antibacterial activity against SHV-2a producing Pseudomonas aeruginosa isolate P102 exhibiting PFGE H pattern by 2-fold agar dilution method in presence of 4 ug/ml Tazobactam
Pseudomonas aeruginosa [15] = experiment: Antibacterial activity against VIM-2 producing Pseudomonas aeruginosa isolate P67 exhibiting PFGE J pattern by 2-fold agar dilution method in presence of 4 ug/ml Tazobactam
Pseudomonas aeruginosa [16] = experiment: Antibacterial activity against PER-1 producing Pseudomonas aeruginosa isolate P170 exhibiting PFGE G pattern by 2-fold agar dilution method in presence of 4 ug/ml Tazobactam
Pseudomonas aeruginosa [17] = experiment: Antibacterial activity against OXA-19 producing Pseudomonas aeruginosa isolate P11 exhibiting PFGE A pattern by 2-fold agar dilution method in presence of 4 ug/ml Tazobactam
Pseudomonas aeruginosa [18] = experiment: Antibacterial activity against SHV-2a producing Pseudomonas aeruginosa isolate P60 exhibiting PFGE H pattern by 2-fold agar dilution method in presence of 4 ug/ml Tazobactam
Pseudomonas aeruginosa [19] = experiment: Antibacterial activity against OXA-30, PSE-1, VIM-2 and PER-1 producing Pseudomonas aeruginosa isolate P19 exhibiting PFGE F pattern by 2-fold agar dilution method in presence of 4 ug/ml Tazobactam
Pseudomonas aeruginosa [20] = experiment: Antibacterial activity against OXA-19 producing Pseudomonas aeruginosa isolate P122 exhibiting PFGE A pattern by 2-fold agar dilution method in presence of 4 ug/ml Tazobactam
Pseudomonas aeruginosa [21] = experiment: Antibacterial activity against OXA-10, PSE-1, VIM-2 and PER-1 producing Pseudomonas aeruginosa isolate P22 exhibiting PFGE F pattern by 2-fold agar dilution method in presence of 4 ug/ml Tazobactam
Pseudomonas aeruginosa [22] = experiment: Antibacterial activity against OXA-2 and OXA-19 producing Pseudomonas aeruginosa isolate P66 exhibiting PFGE C pattern by 2-fold agar dilution method in presence of 4 ug/ml Tazobactam
Pseudomonas aeruginosa [23] = experiment: Antibacterial activity against IMP-18 producing Pseudomonas aeruginosa isolate P85 exhibiting PFGE K pattern by 2-fold agar dilution method in presence of 4 ug/ml Tazobactam
Pseudomonas aeruginosa [24] = experiment: Antibacterial activity against OXA-28 producing Pseudomonas aeruginosa isolate P174 exhibiting PFGE E pattern by 2-fold agar dilution method in presence of 4 ug/ml Tazobactam
Pseudomonas aeruginosa [25] = experiment: Antibacterial activity against VEB-1a and OXA-10 producing Pseudomonas aeruginosa isolate P151 exhibiting PFGE I pattern by 2-fold agar dilution method in presence of 4 ug/ml Tazobactam
Pseudomonas aeruginosa [26] = experiment: Antibacterial activity against OXA-19 producing Pseudomonas aeruginosa isolate P9 exhibiting PFGE A pattern by 2-fold agar dilution method in presence of 4 ug/ml Tazobactam

CC(C)(O/N=C(\C(=O)N[C@@H]1C(=O)N2C(C(=O)[O-])=C(C[n+]3ccccc3)CS[C@H]12)c1csc(N)n1)C(=O)O [CEFTAZIDIME]
MIC (Pseudomonas aeruginosa [1]): 256 µg/mL (≈ 468 µM) | MIC (Pseudomonas aeruginosa [2]): 128 µg/mL (≈ 234 µM) | MIC (Pseudomonas aeruginosa [3]): 256 µg/mL (≈ 468 µM) | MIC (Pseudomonas aeruginosa [4]): 64 µg/mL (≈ 117 µM) | MIC (Pseudomonas aeruginosa [5]): 256 µg/mL (≈ 468 µM) | MIC (Pseudomonas aeruginosa [6]): 64 µg/mL (≈ 117 µM) | MIC (Pseudomonas aeruginosa [7]): 64 µg/mL (≈ 117 µM) | MIC (Pseudomonas aeruginosa [8]): 256 µg/mL (≈ 468 µM) | MIC (Pseudomonas aeruginosa [9]): > 512 µg/mL | MIC (Pseudomonas aeruginosa [10]): 256 µg/mL (≈ 468 µM) | MIC (Pseudomonas aeruginosa [11]): 256 µg/mL (≈ 468 µM) | MIC (Pseudomonas aeruginosa [12]): 256 µg/mL (≈ 468 µM) | MIC (Pseudomonas aeruginosa [13]): > 512 µg/mL

CCN1CCN(C(=O)N[C@@H](C(=O)N[C@@H]2C(=O)N3[C@@H]2SC(C)(C)[C@@H]3C(=O)O)c2ccccc2)C(=O)C1=O [PIPERACILLIN]
MIC (Pseudomonas aeruginosa [14]): 128 µg/mL | MIC (Pseudomonas aeruginosa [15]): 32 µg/mL | MIC (Pseudomonas aeruginosa [16]): 128 µg/mL | MIC (Pseudomonas aeruginosa [17]): 64 µg/mL | MIC (Pseudomonas aeruginosa [18]): 128 µg/mL | MIC (Pseudomonas aeruginosa [19]): 256 µg/mL | MIC (Pseudomonas aeruginosa [20]): 64 µg/mL | MIC (Pseudomonas aeruginosa [21]): 256 µg/mL | MIC (Pseudomonas aeruginosa [22]): 32 µg/mL | MIC (Pseudomonas aeruginosa [23]): 128 µg/mL | MIC (Pseudomonas aeruginosa [24]): 128 µg/mL | MIC (Pseudomonas aeruginosa [25]): 256 µg/mL | MIC (Pseudomonas aeruginosa [26]): 128 µg/mL

NCC[C@H](O)C(=O)N[C@@H]1C[C@H](N)[C@@H](O[C@H]2O[C@H](CN)[C@@H](O)[C@H](O)[C@H]2O)[C@H](O)[C@H]1O[C@H]1O[C@H](CO)[C@@H](O)[C@H](N)[C@H]1O [AMIKACIN]
MIC (Pseudomonas aeruginosa [1]): 16 µg/mL (≈ 27.3 µM) | MIC (Pseudomonas aeruginosa [2]): 32 µg/mL (≈ 54.6 µM) | MIC (Pseudomonas aeruginosa [3]): 32 µg/mL (≈ 54.6 µM) | MIC (Pseudomonas aeruginosa [4]): 32 µg/mL (≈ 54.6 µM) | MIC (Pseudomonas aeruginosa [5]): 16 µg/mL (≈ 27.3 µM) | MIC (Pseudomonas aeruginosa [6]): 128 µg/mL (≈ 219 µM) | MIC (Pseudomonas aeruginosa [7]): 128 µg/mL (≈ 219 µM) | MIC (Pseudomonas aeruginosa [8]): 64 µg/mL (≈ 109 µM) | MIC (Pseudomonas aeruginosa [9]): 128 µg/mL (≈ 219 µM) | MIC (Pseudomonas aeruginosa [10]): 8 µg/mL (≈ 13.7 µM) | MIC (Pseudomonas aeruginosa [11]): 8 µg/mL (≈ 13.7 µM) | MIC (Pseudomonas aeruginosa [12]): 64 µg/mL (≈ 109 µM) | MIC (Pseudomonas aeruginosa [13]): > 512 µg/mL

CO/N=C(\C(=O)N[C@@H]1C(=O)N2C(C(=O)[O-])=C(C[N+]3(C)CCCC3)CS[C@H]12)c1csc(N)n1
MIC (Pseudomonas aeruginosa [1]): 64 µg/mL (≈ 133 µM) | MIC (Pseudomonas aeruginosa [2]): 64 µg/mL (≈ 133 µM) | MIC (Pseudomonas aeruginosa [3]): 64 µg/mL (≈ 133 µM) | MIC (Pseudomonas aeruginosa [4]): 64 µg/mL (≈ 133 µM) | MIC (Pseudomonas aeruginosa [5]): 32 µg/mL (≈ 66.6 µM) | MIC (Pseudomonas aeruginosa [6]): 64 µg/mL (≈ 133 µM) | MIC (Pseudomonas aeruginosa [7]): 16 µg/mL (≈ 33.3 µM) | MIC (Pseudomonas aeruginosa [8]): 128 µg/mL (≈ 266 µM) | MIC (Pseudomonas aeruginosa [9]): > 512 µg/mL | MIC (Pseudomonas aeruginosa [12]): 128 µg/mL (≈ 266 µM) | MIC (Pseudomonas aeruginosa [13]): 256 µg/mL (≈ 533 µM)

C[C@H]1[C@H](NC(=O)/C(=N\OC(C)(C)C(=O)O)c2csc(N)n2)C(=O)N1S(=O)(=O)O [AZTREONAM]
MIC (Pseudomonas aeruginosa [1]): 16 µg/mL (≈ 36.7 µM) | MIC (Pseudomonas aeruginosa [2]): 32 µg/mL (≈ 73.5 µM) | MIC (Pseudomonas aeruginosa [3]): 128 µg/mL (≈ 294 µM) | MIC (Pseudomonas aeruginosa [4]): 32 µg/mL (≈ 73.5 µM) | MIC (Pseudomonas aeruginosa [5]): 32 µg/mL (≈ 73.5 µM) | MIC (Pseudomonas aeruginosa [6]): 32 µg/mL (≈ 73.5 µM) | MIC (Pseudomonas aeruginosa [7]): 16 µg/mL (≈ 36.7 µM) | MIC (Pseudomonas aeruginosa [8]): 128 µg/mL (≈ 294 µM) | MIC (Pseudomonas aeruginosa [9]): > 512 µg/mL | MIC (Pseudomonas aeruginosa [12]): 256 µg/mL (≈ 588 µM) | MIC (Pseudomonas aeruginosa [13]): 16 µg/mL (≈ 36.7 µM)

O=C(O)c1cn(C2CC2)c2cc(N3CCNCC3)c(F)cc2c1=O [CIPROFLOXACIN]
MIC (Pseudomonas aeruginosa [1]): 64 µg/mL (≈ 193 µM) | MIC (Pseudomonas aeruginosa [2]): 128 µg/mL (≈ 386 µM) | MIC (Pseudomonas aeruginosa [3]): 64 µg/mL (≈ 193 µM) | MIC (Pseudomonas aeruginosa [4]): 32 µg/mL (≈ 96.6 µM) | MIC (Pseudomonas aeruginosa [5]): 128 µg/mL (≈ 386 µM) | MIC (Pseudomonas aeruginosa [6]): 32 µg/mL (≈ 96.6 µM) | MIC (Pseudomonas aeruginosa [7]): 128 µg/mL (≈ 386 µM) | MIC (Pseudomonas aeruginosa [9]): 512 µg/mL (≈ 1550 µM) | MIC (Pseudomonas aeruginosa [10]): 64 µg/mL (≈ 193 µM) | MIC (Pseudomonas aeruginosa [11]): 32 µg/mL (≈ 96.6 µM) | MIC (Pseudomonas aeruginosa [13]): 128 µg/mL (≈ 386 µM)

C[C@@H](O)[C@H]1C(=O)N2C(C(=O)O)=C(SCCNC=N)C[C@H]12 [IMIPENEM ANHYDROUS]
MIC (Pseudomonas aeruginosa [1]): 16 µg/mL (≈ 53.4 µM) | MIC (Pseudomonas aeruginosa [2]): 512 µg/mL (≈ 1710 µM) | MIC (Pseudomonas aeruginosa [3]): 4 µg/mL (≈ 13.4 µM) | MIC (Pseudomonas aeruginosa [4]): 1 µg/mL (≈ 3.34 µM) | MIC (Pseudomonas aeruginosa [5]): 4 µg/mL (≈ 13.4 µM) | MIC (Pseudomonas aeruginosa [6]): 16 µg/mL (≈ 53.4 µM) | MIC (Pseudomonas aeruginosa [7]): 1 µg/mL (≈ 3.34 µM) | MIC (Pseudomonas aeruginosa [8]): 128 µg/mL (≈ 428 µM) | MIC (Pseudomonas aeruginosa [9]): 32 µg/mL (≈ 107 µM) | MIC (Pseudomonas aeruginosa [10]): 8 µg/mL (≈ 26.7 µM) | MIC (Pseudomonas aeruginosa [11]): 8 µg/mL (≈ 26.7 µM) | MIC (Pseudomonas aeruginosa [12]): 128 µg/mL (≈ 428 µM) | MIC (Pseudomonas aeruginosa [13]): 64 µg/mL (≈ 214 µM)

CC1(C)S[C@@H]2[C@H](NC(=O)[C@H](C(=O)O)c3ccsc3)C(=O)N2[C@H]1C(=O)O [TICARCILLIN]
MIC (Pseudomonas aeruginosa [1]): 512 µg/mL (≈ 1330 µM) | MIC (Pseudomonas aeruginosa [2]): > 512 µg/mL | MIC (Pseudomonas aeruginosa [3]): 512 µg/mL (≈ 1330 µM) | MIC (Pseudomonas aeruginosa [4]): > 512 µg/mL | MIC (Pseudomonas aeruginosa [5]): 128 µg/mL (≈ 333 µM) | MIC (Pseudomonas aeruginosa [6]): > 512 µg/mL | MIC (Pseudomonas aeruginosa [7]): 512 µg/mL (≈ 1330 µM) | MIC (Pseudomonas aeruginosa [8]): > 512 µg/mL | MIC (Pseudomonas aeruginosa [9]): > 512 µg/mL | MIC (Pseudomonas aeruginosa [10]): 256 µg/mL (≈ 666 µM) | MIC (Pseudomonas aeruginosa [11]): 256 µg/mL (≈ 666 µM) | MIC (Pseudomonas aeruginosa [12]): > 512 µg/mL | MIC (Pseudomonas aeruginosa [13]): > 512 µg/mL
